Source: ChEMBL document CHEMBL1144124, “New cytotoxic 1-azaanthraquinones and 3-aminonaphthoquinone from the stem bark of Goniothalamus marcanii” (1999)

Tests used:
Format in all cases: functional
A549 = test: Cytotoxicity against human A549 cells after 48 hrs by SRB assay; settings: A549, 48 h, read-out: ED50 (the source's name)
MCF7 = test: Cytotoxicity against human MCF7 cells after 48 hrs by SRB assay; settings: MCF7, 48 h, read-out: ED50 (the source's name)
U-251 = test: Cytotoxicity against human U251 cells after 48 hrs by SRB assay; settings: U-251, 48 h, read-out: ED50 (the source's name)
[1] = Cytotoxicity against human RPMI cells after 48 hrs by SRB assay; settings: read-out: ED50 (the source's name)
HT-29 = test: Cytotoxicity against human HT-29 cells after 48 hrs by SRB assay; settings: HT-29, 48 h, read-out: ED50 (the source's name)

Row | SMILES | EC50 (A549) [nM] | EC50 (MCF7) [nM] | EC50 (U-251) [nM] | EC50 [1] [nM] | EC50 (HT-29) [nM]
1 | CC(=O)C1=C(N)C(=O)c2c(O)cccc2C1=O | 2600 | 2600 | 3030 | 3030 | 
2 | COc1c(C)c2c([nH]c1=O)C(=O)c1ccccc1C2=O [DIELSIQUINONE] | 110 | 110 | 370 | 110 | 1120
3 | Cc1cc(=O)[nH]c2c1C(=O)c1ccccc1C2=O [MARCANIN A] | 420 | 420 | 840 | 420 | 420
4 | COc1c(C)c2c(n(C)c1=O)C(=O)c1ccccc1C2=O [MARCANIN B] | 350 | 180 | 1400 | 700 | 2120
5 | COc1c(CO)c2c(n(C)c1=O)C(=O)c1ccccc1C2=O [MARCANINE C] | 1000 | 1000 |  | 670 | 330
6 | COc1c(C)c2c([nH]c1=O)C(=O)c1cccc(O)c1C2=O [MARCANINE D] | 40 | 80 | 280 | 80 | 350
